According to patent US20250221997A1, “TYK2 INHIBITOR FORMULATIONS AND METHODS OF MAKING THE SAME” (Takeda Pharmaceutical Company Limited, priority 2022, published 2025):
≈ marks a conversion by molar mass, not a printed value. Entries after “also recorded” stand apart in the source; their conditions may differ.

Key:
Type in all cases: physicochemical
[1] = pKa, dissociation constant and pH of saturated aqueous solution; conditions: read-out: pKa of the protonated form
Experimental: The pKa of the protonated form of Compound 1 was determined to be 1.94±0.01. The pH of a saturated aqueous solution of Compound 1 was 8.6.

[2] = Solubility of drug substance in excipient Vitamin E TPGS
Source text: Vitamin E TPGS is a commercially available, non-ionic surfactant, derived from Vitamin E. It is commonly used to enhance the bioavailability of orally administered poorly water-soluble drugs.

[3] = Solubility of Compound 1 polymorphs in aqueous systems, buffer solutions and biorelevant media; conditions: for Aqueous Solubility: Form C Lot: a, Form A Lot: b
[4] = Polymorph screening, competitive slurry studies and humidity storage (form stability)
Source text: The key formulation challenge presented by Compound 1 was poor aqueous solubility. This could possibly limit absorption in vivo.

[5] = Hygroscopicity (water sorption vs relative humidity)

CNc1cc(Nc2cccn(-c3ccccn3)c2=O)nc2c(C(=O)N[C@@H]3CC[C@H]3OC)cnn12 [Compound 1]
pKa [1]: 1.94
solubility in the excipient Vitamin E TPGS [2]: high solubility
solubility at 48 h ([3]; FaSSGF, pH 1.42, fassgf or other biorelevant, thermodynamic from solid): 34.6 µg/mL (≈ 75.1 µM)
solubility at 48 h ([3]; aqueous buffer, thermodynamic from solid, Initial Buffer pH 2.98, pH at 48 Hours 3.01, average of two runs): 18.9 µg/mL (≈ 41 µM)
solubility at 48 h ([3]; aqueous buffer, thermodynamic from solid, Initial Buffer pH 4.46, pH at 48 Hours 4.49, average of two runs): 13.3 µg/mL (≈ 28.9 µM)
solubility at 48 h ([3]; aqueous buffer, thermodynamic from solid, Initial Buffer pH 6.81, pH at 48 Hours 6.75, average of two runs): 4.1 µg/mL (≈ 8.9 µM)
solubility at 48 h ([3]; pH 8.6, thermodynamic from solid, Unbuffered water, pH at 48 Hours 8.6, average of three runs): 5.5 µg/mL (≈ 11.9 µM)
solubility at 48 h ([3]; simulated gastric fluid, thermodynamic from solid, Initial Buffer pH 1.21, pH at 48 Hours 1.19, average of two runs): 58.1 µg/mL (≈ 126 µM)
solubility at 48 h ([3]; thermodynamic from solid, FaSSIF (pH 1.64), pH at 48 Hours 1.50, average of two runs): 29.1 µg/mL (≈ 63.2 µM)
solubility at 48 h ([3]; thermodynamic from solid, FeSSIF (pH 5.03), pH at 48 Hours 5.03, average of two runs): 41 µg/mL (≈ 89 µM)

CNc1cc(Nc2cccn(-c3ccccn3)c2=O)nc2c(C(=O)N[C@@H]3CC[C@H]3OC)cnn12 [Form C]
relative stability of solid form ([4]; competitive slurry studies / polymorphs observed during development): most stable anhydrous, un-solvated form; also recorded: most stable polymorph observed to date
Conversion of Form C to Form A ([4]; in water itself after 1 day): not observed
water activity, aw, above which anhydrous Form C converts to hydrate Form A ([4]; solvent slurries): 0.62-0.82
Conversion of Form C to Form A ([4]; storage at 90% RH at room temperature for 11 days): no conversion to Form A was observed
Hygroscopicity [5]: Limited hygroscopicity
Hygroscopicity, wt gain ([5]; at 75% RH): (1.75% wt gain at 75% RH)
water sorption ([5]; between 5-95% relative humidity): 1.75%
Aqueous Solubility ([3]; 10 mM HCl, pH 2.0): 58 µg/mL
Aqueous Solubility ([3]; 50 mM Acetate buffer, pH 5.0): 13 µg/mL
Aqueous Solubility ([3]; 50 mM Phosphate buffer, pH 6.8): 4 µg/mL
solubility ([3]; FaSSIF, pH 6.5, fassif, thermodynamic from solid): 29 µg/mL (≈ 63 µM)
Aqueous Solubility ([3]; FaSSIF, pH 6.5): 29 µg/mL
Aqueous Solubility ([3]; FcSSIF, pH 5.0): 41 µg/mL
Aqueous Solubility ([3]; SGF, pH 1.2 (0.1% Triton X100)): 35 µg/mL
solubility ([3]; aqueous buffer, thermodynamic from solid, 50 mM Acetate buffer, pH 5.0): 13 µg/mL (≈ 28.2 µM)
solubility ([3]; aqueous buffer, thermodynamic from solid, 50 mM Phosphate buffer, pH 6.8): 4 µg/mL (≈ 8.69 µM)
solubility ([3]; aqueous with cosolvent or surfactant or cyclodextrin, thermodynamic from solid, SGF, pH 1.2 (0.1% Triton X100)): 35 µg/mL (≈ 76 µM)
solubility ([3]; simulated gastric fluid, thermodynamic from solid, 10 mM HCl, pH 2.0): 58 µg/mL (≈ 126 µM)
solubility ([3]; thermodynamic from solid, FeSSIF, pH 5.0): 41 µg/mL (≈ 89 µM)
